Data set [1] deals with T1, HCV polymerase (NS5B570n-Con1) (Hepatitis C virus genotype 1b, UniProt Q9WMX2).
T1 construct: contains a 21 amino acid deletion at the C-terminus relative to the full-length HCV polymerase; 6-histidine (N); made in house; host or cells: E. coli BL21(DE) pLysS, plasmid pET17b
As to the kind of experiment: HCV NS5B RNA polymerase activity assay. The format is biochemical, HCV Con1 strain. On the procedure: The enzymatic activity of HCV polymerase (NS5B570n-Con1) was measured as the incorporation of radiolabeled nucleotide monophosphates into acid insoluble RNA products. Unincorporated radiolabeled substrate was removed by filtration and scintillant was added to the washed and dried filter plate containing radiolabeled RNA product. The amount of RNA product generated by NS5B570-Con1 at the end of the reaction was directly proportional to the amount of light emitted by the scintillant.
The N-terminal 6-histidine tagged HCV polymerase, derived from HCV Con1 strain, genotype 1b (NS5B570n-Con1) contains a 21 amino acid deletion at the C-terminus relative to the full-length HCV polymerase and was purified from E. coli strain BL21(DE) pLysS. The construct, containing the coding sequence of HCV NS5B Con1 (GenBank accession number AJ242654) was inserted into the plasmid construct pET17b, downstream of a T7 promoter expression cassette and transformed into E. coli. A single colony was grown overnight as a starter culture and later used inoculate 10 L of LB media supplemented with 100 μg/mL ampicillin at 37° C. Protein expression was induced by the addition of 0.25 mM isopropyl-β-D-thiogalactopyranoside (IPTG) when optical density at […] of the culture was between 0.6 and 0.8 and cells were harvested after 16 to 18 h at 30° C. NS5B570n-Con1 was purified to homogeneity using a three-step protocol including subsequent column chromatography on Ni-NTA, SP-Sepharose HP and Superdex 75 resins.
Each 50 μl enzymatic reaction contained 20 nM RNA template derived from the complementary sequence of the Internal Ribosome Entry Site (cIRES), 20 nM NS5B570n-Con1 enzyme, 0.5 μCi of tritiated UTP (Perkin Elmer catalog no. TRK-412; specific activity: 30 to 60 Ci/mmol; stock solution concentration from 7.5×10^-5 M to 20.6×10^-6 M), 1 μM each ATP, CTP, and GTP, 40 mM Tris-HCl pH 8.0, 40 mM NaCl, 4 mM DTT (dithiothreitol), 4 mM MgCl2, and 5 μl of compound serial diluted in DMSO. Reaction mixtures were assembled in 96-well filter plates (cat #MADVN0B, Millipore Co.) and incubated for 2 h at 30° C. Reactions were stopped by addition of 10% final (v/v) trichloroacetic acid and incubated for 40 min at 4° C. Reactions were filtered, washed with 8 reaction volumes of 10% (v/v) trichloroacetic acetic acid, 4 reaction volumes of 70% (v/v) ethanol, air dried, and 25 μl of scintillant (Microscint 20, Perkin-Elmer) was added to each reaction well.
The amount of light emitted from the scintillant was converted to counts per minute (CPM) on a Topcount® plate reader (Perkin-Elmer, Energy Range: Low, Efficiency Mode: Normal, Count Time: 1 min, Background Subtract: none, Cross talk reduction: Off).
Data was analyzed in Excel® (Microsoft®) and ActivityBase® (Idbs®). The reaction in the absence of enzyme was used to determine the background signal, which was subtracted from the enzymatic reactions. Positive control reactions were performed in the absence of compound, from which the background corrected activity was set as 100% polymerase activity. All data was expressed as a percentage of the positive control. The compound concentration at which the enzyme-catalyzed rate of RNA synthesis was reduced by 50% (IC50) was calculated by fitting
[formula] equation (i) to the data. where “Y” corresponds to the relative enzyme activity (in %), “% Min” is the residual relative activity at saturating compound concentration, “% Max” is the relative maximum enzymatic activity, “X” corresponds to the compound concentration, and “S” is the Hill coefficient (or slope).

Compound `COc1cc(CN2C(=O)CC[C@H]2CO)c(-c2ccc[nH]c2=O)cc1C(C)(C)C` [Compound I-72, 3-[5-tert-Butyl-2-((S)-2-hydroxymethyl-5-oxo-pyrrolidin-1-ylmethyl)-4-methoxy-phenyl]-1H-pyridin-2-one] yielded a melting point of 146 to 148 °C. For the same compound, in data set [1], the IC50 is 77 nM.
Taken in the same sequence, the figures for `COc1cc(CN(C2CCNCC2)S(C)(=O)=O)c(-c2ccc[nH]c2=O)cc1C(C)(C)C` [Compound I-57] were 205 to 208 °C and 57 nM.
`COc1cc(C(=O)N2CCS(=O)(=O)CC2)c(-c2ccc[nH]c2=O)cc1C(C)(C)C` [Compound I-51] registered a melting point of 252 to 254 °C. Moreover, half-maximal inhibition in data set [1] (IC50) required 552 nM.
For the compound `COc1cc(C(=O)N(C)C)c(-c2ccc[nH]c2=O)cc1C(C)(C)C` [Compound I-41], the melting point lay in the range of 208 to 210 °C. In data set [1], this compound yielded a concentration for half-maximal inhibition (IC50) of 1680 nM.
`COc1cc(CN2CCN(C)S2(=O)=O)c(-c2ccc[nH]c2=O)cc1C(C)(C)C` [Compound I-64, 3-[5-tert-Butyl-4-methoxy-2-(5-methyl-1,1-dioxo-1λ^6-[1,2,5]thiadiazolidin-2-ylmethyl)-phenyl]-1H-pyridin-2-one] registered a melting point of 253 to 255 °C. This compound displayed a half-maximal inhibitory concentration (IC50) in data set [1] of 60 nM.
`CCOC(=O)c1cc(OC)c(C(C)(C)C)cc1-c1ccc[nH]c1=O` [Compound I-54, 4-tert-Butyl-5-methoxy-2-(2-oxo-1,2-dihydro-pyridin-3-yl)-benzoic acid ethyl ester] registered a melting point of 214 to 215 °C. Also, half-maximal inhibition in data set [1] (IC50) was put at 39 nM.
`COc1cc(C(=O)O)c(-c2ccc[nH]c2=O)cc1C(C)(C)C` [Compound I-4, 4-tert-Butyl-5-methoxy-2-(2-oxo-1,2-dihydro-pyridin-3-yl)-benzoic acid]: the melting point lay in the range of 244 to 245 °C. Further, it took 27 nM to reach half-maximal inhibition in data set [1] (IC50).
Taken in the same sequence, the figures for `COc1cc(CN2C(=O)CC[C@@H]2CO)c(-c2ccc[nH]c2=O)cc1C(C)(C)C` [Compound I-83] were 150 to 152 °C and 146 nM.
In the same order, the values of `COc1cc(CN(C)C(=O)c2ccccc2)c(-c2ccc[nH]c2=O)cc1C(C)(C)C` [Compound I-22] are 236.2 to 238 °C and 25 nM.
Turning to `COc1cc(C(=O)N2CCC(CO)C2)c(-c2ccc[nH]c2=O)cc1C(C)(C)C` (stereo not shown) [Compound I-73], the melting point lay in the range of 201 to 203 °C. Moreover, half-maximal inhibition in data set [1] (IC50) was put at 1610 nM.
In the same order, the values of `COc1cc(C(=O)N(C)CC#N)c(-c2ccc[nH]c2=O)cc1C(C)(C)C` [Compound I-66] are 211 to 212 °C and 152 nM.
Taken in the same sequence, the figures for `COc1cc(CNS(=O)(=O)c2ccccc2Cl)c(-c2ccc[nH]c2=O)cc1C(C)(C)C` [Compound I-87] were 231 to 232 °C and 358 nM.
In turn, `COc1cc(CN2CCCCC2=O)c(-c2ccc[nH]c2=O)cc1C(C)(C)C` [Compound I-23] came in with a melting point of 224.6 to 228.9 °C. The compound further displayed an IC50 in data set [1] of 52 nM.
The compound `COc1cc(CN2C(=O)c3ccccc3C2=O)c(-c2ccc[nH]c2=O)cc1C(C)(C)C` [Compound I-33, 2-[4-tert-Butyl-5-methoxy-2-(2-oxo-1,2-dihydro-pyridin-3-yl)-benzyl]-isoindole-1,3-dione] gave a melting point of 277 to 280 °C. For the same compound, the IC50 in data set [1] stood at 35 nM.
Taken in the same sequence, the figures for `COc1cc(CNS(=O)(=O)C(C)C)c(-c2ccc[nH]c2=O)cc1C(C)(C)C` [Compound I-25] were 118 to 120 °C and 183 nM.
For the compound `COc1cc(CN2CCCCS2(=O)=O)c(-c2ccc[nH]c2=O)cc1C(C)(C)C` [Compound I-16], the melting point lay in the range of 225.8 to 226.1 °C. The compound further returned an IC50 in data set [1] of 35 nM.
In the same order, the values of `COc1cc(C(C)N(C)S(C)(=O)=O)c(-c2ccc[nH]c2=O)cc1C(C)(C)C` (stereo not shown) [Compound I-53, N-{1-[4-tert-Butyl-5-methoxy-2-(2-oxo-1,2-dihydro-pyridin-3-yl)-phenyl]-ethyl}-N-methyl-methanesulfonamide] are 205 to 207 °C and 187 nM.
As to `COc1cc(CN2C(=O)CCC2=O)c(-c2ccc[nH]c2=O)cc1C(C)(C)C` [Compound I-29], the melting point is 112.2 to 124.9 °C. The compound also displayed an IC50 in data set [1] of 68 nM.
Taken in the same sequence, the figures for `COc1cc(CNS(=O)(=O)Cc2ccccc2)c(-c2ccc[nH]c2=O)cc1C(C)(C)C` [Compound I-20] were 249 to 250 °C and 211 nM.
For `COc1cc(C(=O)N(C)Cc2ccncc2)c(-c2ccc[nH]c2=O)cc1C(C)(C)C` [Compound I-58], the melting point was 199 to 201 °C. The compound further yielded a half-maximal inhibitory concentration (IC50) in data set [1] of 1140 nM.
With `CC(C)(C)c1ccc(NS(C)(=O)=O)c(-c2ccc[nH]c2=O)c1` [Compound I-6, N-[4-tert-Butyl-2-(2-oxo-1,2-dihydro-pyridin-3-yl)-phenyl]-methane sulfonamide], the melting point lay in the range of 219.3 to 233.8 °C. The compound further yielded an IC50 in data set [1] of 3850 nM.
`COc1cc(CN(C)C(=O)c2cccc(NS(C)(=O)=O)c2)c(-c2ccc[nH]c2=O)cc1C(C)(C)C` [Compound I-65, N-[4-tert-Butyl-5-methoxy-2-(2-oxo-1,2-dihydro-pyridin-3-yl)-benzyl]-3-methanesulfonylamino-N-methyl-benzamide]: the melting point was 170 to 172 °C. The IC50 in data set [1] amounted to 13 nM.
In turn, `COc1cc(C(=O)N2CCOCC2)c(-c2ccc[nH]c2=O)cc1C(C)(C)C` [Compound I-40] came in with a melting point of 208 to 210 °C. This compound also returned a 50% inhibitory concentration (IC50) in data set [1] of 533 nM.
As to `COc1cc(CNS(C)(=O)=O)c(-c2ccc(C)[nH]c2=O)cc1C(C)(C)C` [Compound I-37, N-[4-tert-Butyl-5-methoxy-2-(6-methyl-2-oxo-1,2-dihydro-pyridin-3-yl)-benzyl]-methanesulfonamide], the melting point lay in the range of 120 to 125 °C. The compound also had an IC50 in data set [1] of 146 nM.
In the same order, the values of `COc1cc(CCNS(C)(=O)=O)c(-c2ccc[nH]c2=O)cc1C(C)(C)C` [Compound I-17, N-{2-[4-tert-butyl-5-methoxy-2-(2-oxo-1,2-dihydro-pyridin-3-yl)-phenyl]-ethyl}-methanesulfonamide] are 219.3 to 222.4 °C and 280 nM.
As to `COc1cc(CN(CCO)S(C)(=O)=O)c(-c2ccc[nH]c2=O)cc1C(C)(C)C` [Compound I-35, N-[4-tert-butyl-5-methoxy-2-(2-oxo-1,2-dihydro-pyridin-3-yl)-benzyl]-N-(2-hydroxy-ethyl)-methanesulfonamide], the melting point fell in the range of 234.7 to 236 °C. The compound also came in with an IC50 in data set [1] of 26 nM.
Turning to `COc1cc(CN2CCN(C(=O)OC(C)(C)C)S2(=O)=O)c(-c2ccc[nH]c2=O)cc1C(C)(C)C` [Compound I-61], the melting point lay within 125 to 127 °C. Besides, the IC50 in data set [1] amounted to 319 nM.
`COc1cc(CN2CCNS2(=O)=O)c(-c2ccc[nH]c2=O)cc1C(C)(C)C` [Compound I-60, 3-[5-tert-Butyl-2-(1,1-dioxo-1λ^6-[1,2,5]thiadiazolidin-2-ylmethyl)-4-methoxy-phenyl]-1H-pyridin-2-on] gave a melting point of 230 to 231 °C. Moreover, half-maximal inhibition in data set [1] (IC50) was put at 23 nM.
Taken in the same sequence, the figures for `COc1cc(CN2C(=O)CC[C@@H]2C(=O)O)c(-c2ccc[nH]c2=O)cc1C(C)(C)C` [Compound I-71, (R)-1-[4-tert-Butyl-5-methoxy-2-(2-oxo-1,2-dihydro-pyridin-3-yl)-benzyl]-5-oxo-pyrrolidine-2-carboxylic acid] were 199 to 200 °C and 36 nM.

As a reminder, the melting point is the temperature, or range, at which the solid turns liquid. As a reminder, the IC50 is the concentration needed to halve the response being measured. A high value points to lower potency.

(Values after patent US8232271B2 (priority 2008, dated 2012).)
